The assay concerns the target protein target (Homo sapiens (Human), UniProt Q06187). In words: Reversibility of binding (compound in solution before and after perturbation of target, HPLC-MS/MS). Particulars: target in native (folded) state, target in excess of compound. As for the experimental part:
The following approach was developed to differentiate compounds that form irreversible covalent bond with their targets, such as non-cyano containing acrylamide compounds, from compound that form reversible covalent bond i.e., compounds and/or pharmaceutically acceptable salts of the present disclosure. […] The reactions were then treated with perturbations including both denaturation with 5 M guanidine hydrochloride and digestion with trypsin, disrupting proper folding of the target. […] The concentration of compound in solution was assessed both preceding and following perturbation using high performance liquid chromatography (HPLC) coupled to tandem mass spectrometry.

Chain of protein target (Q06187 whole entry): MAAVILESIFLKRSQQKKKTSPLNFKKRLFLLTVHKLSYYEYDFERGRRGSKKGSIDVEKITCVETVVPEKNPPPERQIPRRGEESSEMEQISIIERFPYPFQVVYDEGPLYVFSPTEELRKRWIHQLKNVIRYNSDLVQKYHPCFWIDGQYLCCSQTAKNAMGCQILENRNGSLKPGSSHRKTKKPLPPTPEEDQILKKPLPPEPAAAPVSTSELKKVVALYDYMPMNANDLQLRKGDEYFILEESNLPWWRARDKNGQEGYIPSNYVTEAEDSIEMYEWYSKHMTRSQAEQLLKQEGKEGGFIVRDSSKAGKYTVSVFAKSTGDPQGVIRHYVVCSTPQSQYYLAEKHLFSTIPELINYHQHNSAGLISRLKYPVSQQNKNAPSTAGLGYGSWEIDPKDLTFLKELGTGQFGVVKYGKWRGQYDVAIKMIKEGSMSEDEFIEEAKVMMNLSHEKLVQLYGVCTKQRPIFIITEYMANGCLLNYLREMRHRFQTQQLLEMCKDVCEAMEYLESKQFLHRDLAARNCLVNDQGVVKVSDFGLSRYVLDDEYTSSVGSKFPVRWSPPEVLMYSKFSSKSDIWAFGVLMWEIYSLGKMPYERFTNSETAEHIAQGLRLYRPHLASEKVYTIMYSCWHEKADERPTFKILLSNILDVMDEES

Regarding `CN(C1COC1)C(C)(C)C=C(C#N)C(=O)N1CCC[C@H]1Cn1nc(-c2ccc(Oc3ccccc3)cc2F)c2c(N)ncnc21` [Example 10, 2-[(2S)-2-[[4-amino-3-(2-fluoro-4-phenoxy-phenyl)pyrazolo[3,4-d]pyrimidin-1-yl]methyl]pyrrolidine-1-carbonyl]-4-methyl-4-[methyl(oxetan-3-yl)amino]pent-2-enenitrile], the “Compound in solution in the native state?” value is “no”.

These data come from US11040980B2, “Substituted pyrazolo[3,4-d]pyrimidines as kinase inhibitors” (PRINCIPIA BIOPHARMA INC., priority 2012, dated 2021).
